Source: patent US8541461B2 (Astex Therapeutics Limited, priority 2005, dated 2013)

Biological target: T1, PKB-PIF fusion protein (protein kinase B) (Homo sapiens, UniProt P31751)
T1 construct: PIF (fusion partner); made in house
Experiment: Measurement of PKB kinase inhibitory activity (IC50)
Format: biochemical
Conditions: 0.6 nM enzyme, 30 μM ATP/γ33P-ATP, 25 μM AKTide-2T substrate; read-out: PKB IC50
Experimental: The reaction is allowed to proceed for 20 minutes before addition of excess orthophosphoric acid to quench activity. The reaction mixture is transferred to a phosphocellulose filter plate where the peptide binds and the unused ATP is washed away. After washing, scintillant is added and the incorporated activity measured by scintillation counting.

T1 sequence (P31751 with tags, fused parts or gaps limits assumed): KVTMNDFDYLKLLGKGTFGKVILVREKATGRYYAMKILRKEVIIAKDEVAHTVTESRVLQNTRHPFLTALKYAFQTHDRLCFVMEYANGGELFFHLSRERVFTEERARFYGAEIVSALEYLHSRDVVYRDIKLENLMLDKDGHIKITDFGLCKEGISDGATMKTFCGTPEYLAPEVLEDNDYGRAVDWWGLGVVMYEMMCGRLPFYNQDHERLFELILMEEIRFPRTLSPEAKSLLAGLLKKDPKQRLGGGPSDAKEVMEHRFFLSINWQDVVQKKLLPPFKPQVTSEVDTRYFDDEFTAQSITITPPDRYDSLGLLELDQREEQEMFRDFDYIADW

SMILES | IC50 [nM]
CNCC(c1ccc(Cl)cc1)c1ccc(-c2cn[nH]c2)cc1 (stereo in doubt) [Example 22, {2-(4-Chloro-phenyl)-2-[4-(1H-pyrazol-4-yl)-phenyl]-ethyl}-methyl-amine (R)] | < 1000
N#CC(Cc1ccccc1)c1cccc(-c2cn[nH]c2)c1 (stereo not drawn) [Example 2, 3-Phenyl-2-[3-(1H-pyrazol-4-yl)-phenyl]-propionitrile] | < 5000
Cc1n[nH]c(C)c1-c1ccc(C(CN)c2ccccc2)cc1 (stereo not drawn) [Example 3, 2-[4-(3,5-Dimethyl-1H-pyrazol-4-yl)-phenyl]-2-phenyl-ethylamine] | < 5000
NCC(Cc1ccccc1)c1cccc(-c2cn[nH]c2)c1 (stereo not drawn) [Example 6, 3-Phenyl-2-[3-(1H-pyrazol-4-yl)-phenyl]-propylamine] | < 5000
CNCCC(c1ccc(Cl)cc1)c1ccc(-c2cn[nH]c2)cc1 (stereo not drawn) [Example 8, {3-(4-Chloro-phenyl)-3-[4-(1H-pyrazol-4-yl)-phenyl]-propyl}-methyl-amine] | < 1000
CNCCC(c1ccc(-c2cn[nH]c2)cc1)c1ccc(F)c(F)c1 (stereo not drawn) [Example 9, {3-(3,4-Difluoro-phenyl)-3-[4-(1H-pyrazol-4-yl)-phenyl]-propyl}-methyl-amine] | < 1000
CNCCC(c1ccc(-c2cn[nH]c2)cc1)c1cccc(Cl)c1 (stereo not drawn) [Example 10, {3-(3-Chloro-phenyl)-3-[4-(1H-pyrazol-4-yl)-phenyl]-propyl}-methyl-amine] | < 1000
NC(=O)CC(c1ccc(Cl)cc1)c1ccc(-c2cn[nH]c2)cc1 (stereo not drawn) [Example 11, 3-(4-Chloro-phenyl)-3-[4-(1H-pyrazol-4-yl)-phenyl]-propionamide] | < 5000
NCCC(c1ccc(Cl)cc1)c1ccc(-c2cn[nH]c2)cc1 (stereo not drawn) [Example 12, 3-(4-Chloro-phenyl)-3-[4-(1H-pyrazol-4-yl)-phenyl]-propylamine] | < 1000
NCCC(c1ccc(-c2cn[nH]c2)cc1)c1ccc(Cl)c(Cl)c1 (stereo not drawn) [Example 13, 3-(3,4-Dichloro-phenyl)-3-[4-(1H-pyrazol-4-yl)-phenyl]-propylamine] | < 1000
Clc1ccc(C2(c3ccc(-c4cn[nH]c4)cc3)CCNCC2)cc1 [Example 14, 4-(4-Chloro-phenyl)-4-[4-(1H-pyrazol-4-yl)-phenyl]-piperidine] | < 1000
COc1ccc(C2(c3ccc(-c4cn[nH]c4)cc3)CCNCC2)cc1 [Example 15, 4-(4-Methoxy-phenyl)-4-[4-(1H-pyrazol-4-yl)-phenyl]-piperidine] | < 1000
CN1CCC(c2ccc(Cl)cc2)(c2ccc(-c3cn[nH]c3)cc2)CC1 [Example 16, 4-(4-Chloro-phenyl)-1-methyl-4-[4-(1H-pyrazol-4-yl)-phenyl]-piperidine] | < 1000
c1ccc(C2(c3ccc(-c4cn[nH]c4)cc3)CCNCC2)cc1 [Example 17, 4-Phenyl-4-[4-(1H-pyrazol-4-yl)-phenyl]-piperidine] | < 1000
Cc1n[nH]c(C)c1-c1ccc(C2(c3ccccc3)CCNCC2)cc1 [Example 18, 4-[4-(3,5-Dimethyl-1H-pyrazol-4-yl)-phenyl]-4-phenyl-piperidine] | < 5000
CN(C)CCC(c1ccc(-c2cn[nH]c2)cc1)c1ccccn1 (stereo not drawn) [Example 19, Dimethyl-{3-[4-(1H-pyrazol-4-yl)-phenyl]-3-pyridin-2-yl-propyl}-amine] | < 5000
CN(C)CC(c1ccc(Cl)cc1)c1ccc(-c2cn[nH]c2)cc1 (stereo not drawn) [Example 20, {2-(4-Chloro-phenyl)-2-[4-(1H-pyrazol-4-yl)-phenyl]-ethyl}-dimethyl-amine] | < 1000
CNCC(c1ccc(Cl)cc1)c1ccc(-c2cn[nH]c2)cc1 (stereo not drawn) [Example 21, {2-(4-Chloro-phenyl)-2-[4-(1H-pyrazol-4-yl)-phenyl]-ethyl}-methyl-amine] | < 1000
Clc1ccc(C(CN2CCOCC2)c2ccc(-c3cn[nH]c3)cc2)cc1 (stereo not drawn) [Example 24, 4-{2-(4-Chloro-phenyl)-2-[4-(1H-pyrazol-4-yl)-phenyl]-ethyl}-morpholine] | < 5000
Clc1ccc(C(CN2CCCC2)c2ccc(-c3cn[nH]c3)cc2)cc1 (stereo not drawn) [Example 25, 4-{4-[1-(4-Chloro-phenyl)-2-pyrrolidin-1-yl-ethyl]-phenyl}-1H-pyrazole] | < 1000
CC(C)NCC(c1ccc(Cl)cc1)c1ccc(-c2cn[nH]c2)cc1 (stereo not drawn) [Example 26, {2-(4-Chloro-phenyl)-2-[4-(1H-pyrazol-4-yl)-phenyl]-ethyl}-isopropyl-amine] | < 1000
CN(C)CC(c1ccccc1)c1ccc(-c2cn[nH]c2)cc1 (stereo not drawn) [Example 27, Dimethyl-{2-phenyl-2-[4-(1H-pyrazol-4-yl)-phenyl]-ethyl}-amine] | < 1000
CN(C)CC(c1ccc(-c2cn[nH]c2)cc1)c1ccc(-c2cn[nH]c2)cc1 [Example 28, {2,2-Bis-[4-(1H-pyrazol-4-yl)-phenyl]-ethyl}-dimethyl-amine] | < 1000
CNCC(c1ccc(-c2cn[nH]c2)cc1)c1ccc(-c2cn[nH]c2)cc1 [Example 29, {2,2-Bis-[4-(1H-pyrazol-4-yl)-phenyl]-ethyl}-methyl-amine] | < 1000

SMILES | IC50 [nM]
NC(=O)C(c1ccc(Cl)cc1)c1ccc(-c2cn[nH]c2)cc1 (stereo not drawn) [Example 32, 2-(4-Chloro-phenyl)-2-[4-(1H-pyrazol-4-yl)-phenyl]-acetamide] | < 5000
Clc1ccc(C(CN2CCNCC2)c2ccc(-c3cn[nH]c3)cc2)cc1 (stereo not drawn) [Example 33, 1-{2-(4-Chloro-phenyl)-2-[4-(1H-pyrazol-4-yl)-phenyl]-ethyl}-piperazine] | < 1000
Clc1ccc(C(CN2CCCCC2)c2ccc(-c3cn[nH]c3)cc2)cc1 (stereo not drawn) [Example 34, 1-{2-(4-Chloro-phenyl)-2-[4-(1H-pyrazol-4-yl)-phenyl]-ethyl}-piperidine] | < 1000
Clc1ccc(C(CN2CCC2)c2ccc(-c3cn[nH]c3)cc2)cc1 (stereo not drawn) [Example 35, 4-{4-[2-Azetidin-1-yl-1-(4-chloro-phenyl)-ethyl]-phenyl}-1H-pyrazole] | < 1000
NC(Cc1ccc(-c2cn[nH]c2)cc1)c1ccccc1 (stereo not drawn) [Example 36, 1-Phenyl-2-[4-(1H-pyrazol-4-yl)-phenyl]-ethylamine] | < 5000
CNC(=O)C(c1ccc(Cl)cc1)c1ccc(-c2cn[nH]c2)cc1 (stereo not drawn) [Example 40, 2-(4-Chloro-phenyl)-N-methyl-2-[4-(1H-pyrazol-4-yl)-phenyl]-acetamide] | < 50000
CNC(=O)C(c1ccc(-c2cn[nH]c2)cc1)c1ccc(-c2cn[nH]c2)cc1 [Example 41, N-Methyl-2,2-bis-[4-(1H-pyrazol-4-yl)-phenyl]-acetamide] | < 50000
Clc1ccc(C(CCN2CCCC2)c2ccc(-c3cn[nH]c3)cc2)cc1 (stereo not drawn) [Example 50, 4-{4-[1-(4-Chloro-phenyl)-3-pyrrolidin-1-yl-propyl]-phenyl}-1H-pyrazole] | < 1000
Clc1ccc(C(CCN2CCC2)c2ccc(-c3cn[nH]c3)cc2)cc1 (stereo not drawn) [Example 51, 4-{4-[3-Azetidin-1-yl-1-(4-chloro-phenyl)-propyl]-phenyl}-1H-pyrazole] | < 1000
CNCCC(c1ccc(-c2cn[nH]c2)cc1)c1ccc(N(C)C)cc1 (stereo not drawn) [Example 53, Dimethyl-(4-{3-methylamino-1-[4-(1H-pyrazol-4-yl)-phenyl]-propyl}-phenyl)-amine] | < 5000
N#Cc1n[nH]cc1-c1ccc(C2(c3ccc(Cl)cc3)CCNCC2)cc1 [Example 55, 4-{4-[4-(4-Chloro-phenyl)-piperidin-4-yl]-phenyl}-1H-pyrazole-3-carbonitrile] | < 5000
NCCC(c1ccc(Oc2ccccc2)cc1)c1ccc(-c2cn[nH]c2)cc1 (stereo not drawn) [Example 56, 3-(4-Phenoxy-phenyl)-3-[4-(1H-pyrazol-4-yl)-phenyl]-propylamine] | < 1000
Clc1ccc(C(c2ccc(-c3cn[nH]c3)cc2)N2CCNCC2)cc1 (stereo not drawn) [Example 57, 1-{(4-Chloro-phenyl)-[4-(1H-pyrazol-4-yl)-phenyl]-methyl}-piperazine] | < 1000
CN1CCCN(C(c2ccccc2)c2ccc(-c3cn[nH]c3)cc2)CC1 (stereo not drawn) [Example 58, 1-Methyl-4-{phenyl-[4-(1H-pyrazol-4-yl)-phenyl]-methyl}-[1,4]diazepane] | < 5000
Clc1ccc(C(CCn2ccnc2)c2ccc(-c3cn[nH]c3)cc2)cc1 (stereo not drawn) [Example 61, 4-{4-[1-(4-Chloro-phenyl)-3-imidazol-1-yl-propyl]-phenyl}-1H-pyrazole] | < 1000
c1ccc(OC(CCn2ccnc2)c2ccc(-c3cn[nH]c3)cc2)cc1 (stereo not drawn) [Example 62, 4-[4-(3-Imidazol-1-yl-1-phenoxy-propyl)-phenyl]-1H-pyrazole] | < 50000
c1ccc(C(c2ccc(-c3cn[nH]c3)cc2)N2CCNCC2)cc1 (stereo not drawn) [Example 64] | < 5000
CNCC(c1ccc(F)cc1)c1ccc(-c2cn[nH]c2)cc1 (stereo not drawn) [Example 65, {2-(4-Fluoro-phenyl)-2-[4-(1H-pyrazol-4-yl)-phenyl]-ethyl}-methyl-amine] | < 1000
COCCCOc1ccc(C2(c3ccc(-c4cn[nH]c4)cc3)CCNCC2)cc1 [Example 68, 4-[4-(3-Methoxy-propoxy)-phenyl]-4-[4-(1H-pyrazol-4-yl)-phenyl]-piperidine] | < 5000
NC(=O)CC(c1ccc(-c2cn[nH]c2)cc1)c1ccc(Cl)c(Cl)c1 (stereo not drawn) [Example 69, 3-(3,4-Dichloro-phenyl)-3-[4-(1H-pyrazol-4-yl)-phenyl]-propionamide] | < 1000
CNCC(c1ccc(Oc2cc(C(N)=O)ccn2)cc1)c1ccc(-c2cn[nH]c2)cc1 (stereo not drawn) [Example 70, 2-(4-{2-Methylamino-1-[4-(1H-pyrazol-4-yl)-phenyl]-ethyl}-phenoxy)-isonicotinamide] | < 50000
CNCC(Oc1ccc(Cl)cc1)c1ccc(-c2cn[nH]c2)cc1 (stereo not drawn) [Example 71, {2-(4-Chloro-phenoxy)-2-[4-(1H-pyrazol-4-yl)-phenyl]-ethyl}-methyl-amine] | < 1000
OCCCNCC(c1ccc(Cl)cc1)c1ccc(-c2cn[nH]c2)cc1 (stereo not drawn) [Example 72] | < 1000
CNCC(c1ccc(-c2cccnc2)cc1)c1ccc(-c2cn[nH]c2)cc1 (stereo not drawn) [Example 75, Methyl-[2-[4-(1H-pyrazol-4-yl)-phenyl]-2-(4-pyridin-3-yl-phenyl)-ethyl]-amine] | < 5000
